Test results as given in ChEMBL document CHEMBL4406798, “A novel finding of nalbuphine-6-glucuronide, an active opiate metabolite, possessing potent antinociceptive effects: Synthesis and biological evaluation” (2019).

Tests used:
[1] = tested on: Rattus norvegicus; experiment: Antinociceptive activity in Sprague-Dawley rat model of thermal-induced nociception assessed as maximum possible analgesia at 50 mg/kg, ip measured over 2.5 hrs by cold-ethanol tail-flick test relative to control; type: functional
[2] = tested on: Rattus norvegicus; experiment: Antinociceptive activity in Sprague-Dawley rat model of paw mechanical allodynia assessed as reduction in paw pressure by measuring AUC (0 to t) of paw pressure test at 50 mg/kg, ip by Randall-Selitto test; type: functional, organism-based
[3] = tested on: Rattus norvegicus; experiment: Antinociceptive activity in Sprague-Dawley rat model of paw mechanical allodynia assessed as maximum possible analgesia at 1 mg/kg administered as intra-cisternal injection by Randall-Selitto test relative to control; type: functional
[4] = tested on: Rattus norvegicus; experiment: Antinociceptive activity in Sprague-Dawley rat model of thermal-induced nociception assessed as maximum possible analgesia at 1 mg/kg administered as intra-cisternal injection measured over 2.5 hrs by cold-ethanol tail-flick test relative to control; type: functional
[5] = tested on: Rattus norvegicus; experiment: Antinociceptive activity in Sprague-Dawley rat model of thermal-induced nociception assessed as duration above 50% maximum possible analgesia at 50 mg/kg, ip measured over 2.5 hrs by cold-ethanol tail-flick test; type: functional
[6] = tested on: Rattus norvegicus; experiment: Antinociceptive activity in Sprague-Dawley rat model of paw mechanical allodynia assessed as reduction in paw pressure by measuring AUC (0 to t) of paw pressure test at 1 mg/kg administered as intra-cisternal injection by Randall-Selitto test; type: functional, organism-based
[7] = tested on: Rattus norvegicus; experiment: Antinociceptive activity in Sprague-Dawley rat model of thermal-induced nociception assessed as duration above 50% maximum possible analgesia at 1 mg/kg administered as intra-cisternal injection measured over 2.5 hrs by cold-ethanol tail-flick test; type: functional
[8] = tested on: Rattus norvegicus; experiment: Antinociceptive activity in Sprague-Dawley rat model of thermal-induced nociception assessed as reduction in tail-flick response by measuring AUC (0 to t) of tail flick test at 1 mg/kg administered as intra-cisternal injection measured over 2.5 hrs by cold-ethanol tail-flick test; type: functional, organism-based; design: dose 1 mg/kg, time < 2.5 hr
[9] = tested on: Rattus norvegicus; experiment: Antinociceptive activity in Sprague-Dawley rat model of paw mechanical allodynia assessed as duration above 50% maximum possible analgesia at 1 mg/kg administered as intra-cisternal injection by Randall-Selitto test; type: functional
[10] = tested on: Rattus norvegicus; experiment: Antinociceptive activity in Sprague-Dawley rat model of paw mechanical allodynia assessed as maximum possible analgesia at 50 mg/kg, ip by Randall-Selitto test relative to control; type: functional
[11] = tested on: Rattus norvegicus; experiment: Antinociceptive activity in Sprague-Dawley rat model of paw mechanical allodynia assessed as duration above 50% maximum possible analgesia at 50 mg/kg, ip by Randall-Selitto test; type: functional
[12] = tested on: Rattus norvegicus; experiment: Antinociceptive activity in Sprague-Dawley rat model of thermal-induced nociception assessed as reduction in tail-flick response by measuring AUC (0 to t) of tail flick test at 50 mg/kg, ip measured over 2.5 hrs by cold-ethanol tail-flick test; type: functional, organism-based; design: time < 2.5 hr, dose 50 mg/kg
[13] = organism: Rattus norvegicus; experiment: Ratio of AUC for test compound to AUC for nalbuphine for antinociceptive activity in Sprague-Dawley rat model by cold-ethanol tail-flick test; type: functional
[14] = organism: Rattus norvegicus; experiment: Ratio of AUC for test compound to AUC for nalbuphine for antinociceptive activity in Sprague-Dawley rat model by Randall-Selitto test; type: functional

Row | SMILES | Activity [1] | AUC [2] | Activity [3] | Activity [4] | Time [5] | AUC [6] | Time [7] | AUC [8] | Time [9] | Activity [10] | Time [11] | AUC [12] | Ratio [13] | Ratio [14]
1 | Oc1ccc2c3c1O[C@H]1[C@@H](O)CC[C@@]4(O)[C@@H](C2)N(CC2CCC2)CC[C@]314 [NALBUPHINE] | 43.6% | 169 g·h | 48% | 38.4% | 0.15 h | 176 g·h | 0.07 h | 11.3 hr.sec | 0.13 h | 37.9% | 0.1 h | 16.9 hr.sec |  | 
2 | O=C(O)[C@H]1O[C@@H](O[C@H]2CC[C@@]3(O)[C@H]4Cc5ccc(O)c6c5[C@@]3(CCN4CC3CCC3)[C@H]2O6)[C@H](O)[C@@H](O)[C@@H]1O | 22.7% | 158 g·h | 95.1% | 96.5% |  | 510 g·h |  | 40.3 hr.sec | 91 h | 29.6% |  | 5.4 hr.sec | 3.5 | 2.8
3 | O=C(O)[C@H]1O[C@@H](Oc2ccc3c4c2O[C@H]2[C@@H](O)CC[C@@]5(O)[C@@H](C3)N(CC3CCC3)CC[C@]425)[C@H](O)[C@@H](O)[C@@H]1O | 19.3% | 73.4 g·h | 7.3% | 22.3% |  | 23.5 g·h | 1.36 h | 5.4 hr.sec |  | 17.7% |  | 5.8 hr.sec |  | 
